Each compound was assayed against T1, human CCR6 (Homo sapiens, UniProt P51684) (assay: Migration (chemotaxis) assay, hCCR6-transfected Ba/F3 cells toward CCL20). Conditions: hCCR6-transfected Ba/F3 cells in human serum; recombinant human CCL20 10 nM; 37° C. 45 minutes; read-out: Potency (IC50 value in the migration assay).
T1 construct: expressed in transfected cells; host or cells: Ba/F3 cells (murine pro-B line), hCCR6-transfected, CMV promoter, sodium butyrate induction
T1 sequence (P51684 1-374): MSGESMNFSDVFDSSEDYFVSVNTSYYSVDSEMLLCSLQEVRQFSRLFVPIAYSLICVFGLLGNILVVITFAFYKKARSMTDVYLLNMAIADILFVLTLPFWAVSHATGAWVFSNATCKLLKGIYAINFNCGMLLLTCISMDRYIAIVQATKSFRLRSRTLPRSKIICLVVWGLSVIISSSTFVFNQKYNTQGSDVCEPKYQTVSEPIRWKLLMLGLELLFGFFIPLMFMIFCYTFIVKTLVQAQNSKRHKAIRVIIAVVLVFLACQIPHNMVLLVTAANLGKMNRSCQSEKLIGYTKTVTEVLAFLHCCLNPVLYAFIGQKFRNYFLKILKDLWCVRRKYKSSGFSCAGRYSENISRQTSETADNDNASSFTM
Assay type: cell-based
Description: A chemotaxis assay can be used to determine the efficacy of potential receptor antagonists at blocking the migration mediated through chemokine receptors, such as CCR6. This assay is routinely performed using the ChemoTX® microchamber system with a 5-μm pore-sized polycarbonate membrane. Chemokine receptor-expressing cells are required for such an assay. In this case, Ba/F3 cells (Palacios et al., Nature, 309:126, 1984) transfected with the gene for human CCR6 under control of the CMV promotor were used. To begin such an assay, hCCR6-transfected Ba/F3 cells are first grown for 24 hr in medium supplemented with sodium butyrate, which increases CCR6 transcription via the CMV promotor. The prepared Ba/F3 cells, are collected by centrifugation at 400×g at room temperature, then suspended at 4 million/ml in human serum. The compound being tested is serially diluted from a maximum final concentration of 10 μM (or an equivalent volume of its solvent (DMSO)) and is then added to the cell/serum mixture. Separately, recombinant human CCL20 (MIP-3α/LARC) at its EC50 concentration (10 nM) is placed in the lower wells of the ChemoTX® plate. The 5-μm (pore size) polycarbonate membrane is placed onto the plate, and 20 μL of the cell/compound mixture is transferred onto each well of the membrane. The plates are incubated at 37° C. for 45 minutes, after which the polycarbonate membranes are removed and 5 μl of the DNA-intercalating dye CyQUANT (Invitrogen, Carlsbad, CA) is added to the lower wells. The amount of fluorescence, corresponding to the number of migrated cells, is measured using a Spectrafluor Plus plate reader (TECAN, San Jose, CA).

IC50	Structure (SMILES)
< 5 nM	CC(=O)N1Cc2ccc(-c3ccc(S(=O)(=O)N4CCC(Nc5ccc(C(F)(F)F)cn5)CC4)cc3)cc2C1 [Example 1.053]
< 5 nM	NC(=O)N1Cc2ccc(-c3ccc(S(=O)(=O)N4CCC(Nc5ccc(C(F)(F)F)cn5)CC4)cc3)cc2C1 [Example 1.054]
< 5 nM	N#Cc1n[nH]c2ccc(-c3ccc(S(=O)(=O)N4CCC(Nc5ccc(C(F)(F)F)cn5)CC4)cc3)cc12 [Example 1.055]
< 5 nM	N#Cc1c[nH]c2ncc(-c3ccc(S(=O)(=O)N4CCC(Nc5ccc(C(F)(F)F)cc5)CC4)cc3)cc12 [Example 1.056]
100 to 10000 nM	O=S(=O)(c1ccc(-c2ccc3c(c2)CNC3)cc1)N1CCC(Nc2ccc(C(F)(F)F)cn2)CC1 [Example 1.058]
< 5 nM	O=C1Nc2ncc(-c3ccc(S(=O)(=O)N4CCC(Nc5ccc(C(F)(F)F)cn5)CC4)cc3)cc2C12CCOCC2 [Example 1.064]
5 to 100 nM	O=c1[nH]c2ncc(-c3ccc(S(=O)(=O)N4CCC(Nc5ccc(C(F)(F)F)cn5)CC4)cc3)cc2o1 [Example 1.065]
< 5 nM	O=C1NCCc2ccc(-c3ccc(S(=O)(=O)N4CCC(Nc5ccc(C(F)(F)F)cn5)CC4)cc3)cc21 [Example 1.066]
5 to 100 nM	O=C1COc2cc(-c3ccc(S(=O)(=O)N4CCC(Nc5ccc(C(F)(F)F)cn5)CC4)cc3)ccc2N1 [Example 1.074]
5 to 100 nM	N#Cc1cc2ccc(-c3ccc(S(=O)(=O)N4CCC(Nc5ccc(C(F)(F)F)cn5)CC4)cc3)cc2[nH]1 [Example 1.079]
5 to 100 nM	NC(=O)c1c[nH]c2ccc(-c3ccc(S(=O)(=O)N4CCC(Nc5ccc(C(F)(F)F)cn5)CC4)cc3)cc12 [Example 1.080]
< 5 nM	NC(=O)c1cnc2ccc(-c3ccc(S(=O)(=O)N4CCC(Nc5ccc(C(F)(F)F)cn5)CC4)cc3)cn12 [Example 1.085]
5 to 100 nM	O=S(=O)(c1ccc(-c2ccc3[nH]nc(C(F)(F)F)c3c2)cc1)N1CCC(Nc2ccc(C(F)(F)F)cn2)CC1 [Example 1.087]
5 to 100 nM	Cc1n[nH]c2ccc(-c3ccc(S(=O)(=O)N4CCC(Nc5ccc(C(F)(F)F)cn5)CC4)cc3)cc12 [Example 1.094]
< 5 nM	NC(=O)c1n[nH]c2ccc(-c3ccc(S(=O)(=O)N4CCC(Nc5ccc(C(F)(F)F)cn5)CC4)cc3)cc12 [Example 1.095]
5 to 100 nM	O=S(=O)(c1ccc(-c2ccc3[nH]ncc3c2)cc1)N1CCC(Nc2ccc(C(F)(F)F)cn2)CC1 [Example 1.096]
5 to 100 nM	NC(=O)c1cc2cc(-c3ccc(S(=O)(=O)N4CCC(Nc5ccc(C(F)(F)F)cn5)CC4)cc3)ccc2[nH]1 [Example 1.098]
5 to 100 nM	N#Cc1c[nH]c2cc(-c3ccc(S(=O)(=O)N4CCC(Nc5ccc(C(F)(F)F)cn5)CC4)cc3)ccc12 [Example 1.101]
5 to 100 nM	N#Cc1c[nH]c2ccc(-c3ccc([S@](=N)(=O)N4CCC(Nc5ccc(C(F)(F)F)cn5)CC4)cc3)cc12 [Example 1.103]
5 to 100 nM	N=[S@](=O)(c1ccc(-c2ccc3[nH]cnc3c2)cc1)N1CCC(Nc2ccc(C(F)(F)F)cc2)CC1 [Example 1.104]
5 to 100 nM	Nc1nc2cc(-c3ccc(S(=O)(=O)N4CCC(Nc5ccc(C(F)(F)F)cn5)CC4)cc3)ccc2[nH]1 [Example 1.107]

Continued, compound first:

Structure (SMILES)	IC50
O=c1[nH]c2ccc(-c3ccc(S(=O)(=O)N4CCC(Nc5ccc(C(F)(F)F)cn5)CC4)cc3)cc2n1C1CC1 [Example 1.052]	5 to 100 nM
O=c1[nH]c(=O)c2ccc(-c3ccc(S(=O)(=O)N4CCC(Nc5ccc(C(F)(F)F)cn5)CC4)cc3)cc2[nH]1 [Example 1.057]	5 to 100 nM
O=c1[nH]ncc2cc(-c3ccc(S(=O)(=O)N4CCC(Nc5ccc(C(F)(F)F)cn5)CC4)cc3)ccc12 [Example 1.059]	< 5 nM
N#Cc1ccc2nc(-c3ccc(S(=O)(=O)N4CCC(Nc5ccc(C(F)(F)F)cn5)CC4)cc3)sc2c1 [Example 1.060]	5 to 100 nM
NC(=O)c1ccc(-c2ccc(S(=O)(=O)N3CCC(Nc4ccc(C(F)(F)F)cn4)CC3)cc2)c2cc[nH]c12 [Example 1.061]	5 to 100 nM
O=C1NS(=O)(=O)c2cc(-c3ccc(S(=O)(=O)N4CCC(Nc5ccc(C(F)(F)F)cn5)CC4)cc3)ccc21 [Example 1.062]	5 to 100 nM
O=C1NS(=O)(=O)c2ccc(-c3ccc(S(=O)(=O)N4CCC(Nc5ccc(C(F)(F)F)cn5)CC4)cc3)cc21 [Example 1.063]	5 to 100 nM
O=c1[nH]c2cc(-c3ccc(S(=O)(=O)N4CCC(Nc5ccc(C(F)(F)F)cn5)CC4)cc3)cnc2[nH]1 [Example 1.067]	< 5 nM
Nc1n[nH]c2ncc(-c3ccc(S(=O)(=O)N4CCC(Nc5ccc(C(F)(F)F)cn5)CC4)cc3)cc12 [Example 1.068]	< 5 nM
CN(C)c1n[nH]c2ccc(-c3ccc(S(=O)(=O)N4CCC(Nc5ccc(C(F)(F)F)cn5)CC4)cc3)cc12 [Example 1.069]	5 to 100 nM
N#Cc1c(N)[nH]c2ccc(-c3ccc(S(=O)(=O)[C@H]4CC[C@H](Nc5ccc(C(F)(F)F)cn5)CC4)cc3)cc12 [Example 1.070]	< 5 nM
N#Cc1c[nH]c2ncc(-c3ccc(S(=O)(=O)[C@H]4CC[C@H](Nc5ccc(C(F)(F)F)cn5)CC4)cc3)cc12 [Example 1.071]	< 5 nM
N#Cc1n[nH]c2ccc(-c3ccc(S(=O)(=O)[C@H]4CC[C@H](Nc5ccc(C(F)(F)F)cn5)CC4)cc3)cc12 [Example 1.072]	< 5 nM
O=C1Cc2cc(-c3ccc(S(=O)(=O)N4CCC(Nc5ccc(C(F)(F)F)cn5)CC4)cc3)cnc2N1 [Example 1.073]	< 5 nM
O=C1NCCc2cc(-c3ccc(S(=O)(=O)N4CCC(Nc5ccc(C(F)(F)F)cn5)CC4)cc3)ccc21 [Example 1.075]	< 5 nM
O=C1Cc2cc(-c3ccc(S(=O)(=O)N4CCC(Nc5ccc(C(F)(F)F)cn5)CC4)cc3)ccc2N1 [Example 1.076]	< 5 nM
COc1n[nH]c2ccc(-c3ccc(S(=O)(=O)N4CCC(Nc5ccc(C(F)(F)F)cn5)CC4)cc3)cc12 [Example 1.077]	5 to 100 nM

Structure (SMILES)	IC50
O=C1CCc2cc(-c3ccc(S(=O)(=O)N4CCC(Nc5ccc(C(F)(F)F)cn5)CC4)cc3)ccc2N1 [Example 1.078]	5 to 100 nM
Nc1cc2cc(-c3ccc(S(=O)(=O)N4CCC(Nc5ccc(C(F)(F)F)cn5)CC4)cc3)cnc2o1 [Example 1.081]	< 5 nM
O=c1[nH]c2cc(-c3ccc(S(=O)(=O)N4CCC(Nc5ccc(C(F)(F)F)cn5)CC4)cc3)ccc2o1 [Example 1.082]	5 to 100 nM
O=S(=O)(c1ccc(-c2ccnc3[nH]ccc23)cc1)N1CCC(Nc2ccc(C(F)(F)F)cn2)CC1 [Example 1.083]	5 to 100 nM
O=C1Cc2ccc(-c3ccc(S(=O)(=O)N4CCC(Nc5ccc(C(F)(F)F)cn5)CC4)cc3)cc2N1 [Example 1.084]	5 to 100 nM
Nc1nc2ccc(-c3ccc(S(=O)(=O)N4CCC(Nc5ccc(C(F)(F)F)cn5)CC4)cc3)cc2o1 [Example 1.086]	< 5 nM
N#Cc1c[nH]c2ncc(-c3ccc(S(=O)(=O)N4CCC(Nc5ccc(C(F)(F)F)cn5)CC4)cc3)cc12 [Example 1.088]	< 5 nM
O=S(=O)(c1ccc(-c2cnc3[nH]ccc3c2)cc1)N1CCC(Nc2ccc(C(F)(F)F)cn2)CC1 [Example 1.089]	< 5 nM
Cn1nc(C(N)=O)c2cc(-c3ccc(S(=O)(=O)N4CCC(Nc5ccc(C(F)(F)F)cn5)CC4)cc3)ccc21 [Example 1.090]	< 5 nM
Cn1nc(C#N)c2cc(-c3ccc(S(=O)(=O)N4CCC(Nc5ccc(C(F)(F)F)cn5)CC4)cc3)ccc21 [Example 1.091]	< 5 nM
Cc1nc2cc(-c3ccc(S(=O)(=O)N4CCC(Nc5ccc(C(F)(F)F)cn5)CC4)cc3)ccc2[nH]1 [Example 1.092]	5 to 100 nM
O=C1NCc2ccc(-c3ccc(S(=O)(=O)N4CCC(Nc5ccc(C(F)(F)F)cn5)CC4)cc3)cc21 [Example 1.093]	< 5 nM
O=c1[nH]c2ccc(-c3ccc(S(=O)(=O)N4CCC(Nc5ccc(C(F)(F)F)cn5)CC4)cc3)cc2o1 [Example 1.097]	< 5 nM
N#Cc1c(N)[nH]c2ccc(-c3ccc(S(=O)(=O)N4CCC(Nc5ccc(C(F)(F)F)cn5)CC4)cc3)cc12 [Example 1.099]	< 5 nM
NC(=O)N1CCc2nc(-c3ccc(S(=O)(=O)N4CCC(Nc5ccc(C(F)(F)F)cn5)CC4)cc3)sc2C1 [Example 1.102]	100 to 10000 nM
N=[S@](=O)(c1ccc(-c2ccc3oc(N)nc3c2)cc1)N1CCC(Nc2ccc(C(F)(F)F)cc2)CC1 [Example 1.105]	5 to 100 nM
O=S(=O)(c1ccc(-c2nc3c(s2)CNCC3)cc1)N1CCC(Nc2ccc(C(F)(F)F)cn2)CC1 [Example 1.106]	100 to 10000 nM

From patent US12012403B2, “Aryl sulfonyl compounds as CCR6 inhibitors” (CHEMOCENTRYX, INC., priority 2021, dated 2024)
